Measured values reported in patent US11071789B2, “Pharmaceutical prodrugs and methods of their preparation and use” (CEPHALON, INC., priority 2016, dated 2021).
Like-named read-outs stand apart in the source and are kept apart here.

Assays:
[1] = SCID, mouse, in vivo, iv
[2] = female, SCID, mouse, in vivo, iv
[3] = Dox-Hyd-C12 nanoparticles: plasma, liver and lung levels in female SCID mice; details: Dox-Hyd-C12 nanoparticle study, about 2.2 mg-eq/kg IV
[4] = Dox-Hyd-C18 nanoparticles: plasma, liver and lung levels in female SCID mice; format: in vivo; details: about 1.8 mg-eq/kg IV

Row | Compound | tmax [1] | AUC0-t [2] | AUC0-∞ [2] | tmax [2] | doxorubicin from hydrolysis of prodrug in tissue [3] | doxorubicin from hydrolysis of prodrug in tissue [4] | time nanoparticles circulate in plasma [4]
1 | Cn1c(CCCC(=O)O)nc2cc(N(CCCl)CCCl)ccc21 [Bendamustine, bendamustine] | 4.98 min | 566 ng·h/mL | 589 ng·h/mL | 0083 h | – | – | –
2 | CCCCCCCCCCCCCCCCCC(=O)NN=C(CO)[C@]1(O)Cc2c(O)c3c(c(O)c2[C@@H](O[C@H]2C[C@H](N)[C@H](O)[C@H](C)O2)C1)C(=O)c1c(OC)cccc1C3=O [Dox-Hyd-C18] | – | – | – | – | detected in liver and lung tissue | detected in liver and lung tissue | up to 24 hours
